Article PMC10003107, “Selectivity of Hydroxamate- and Difluoromethyloxadiazole-Based Inhibitors of Histone Deacetylase 6 In Vitro and in Cells” (International Journal of Molecular Sciences, 2023)
Like-named read-outs stand apart in the source and are kept apart here.

Tests used:
tubulin acetylation = assay: Tubulin acetylation in RPMI-8226 cells by quantitative Western blotting; assay type: cell-based
RPMI-8226 lymphoblasts = assay: MTT viability assay; assay type: cell-based; conditions: RPMI-8226 cells, 48 h; for EC50: read-out: EC50 cytotoxicity (MTT viability)
Protocol: (§1) RPMI-8226 lymphoblasts (ATTC #CCL-155) were used to assess the cytotoxicity of tested compounds. […] Dilution series of tested inhibitors were prepared as 10x stock solutions in PBS and 10 μL was added to cells and incubated under a 5% CO2 atmosphere at 37 °C, for 2 days. Following incubation, 10 μL of MTT reagent (3-(4,5-dimethylthiazol-2-yl)-2,5-diphenyltetrazolium bromide, 5 mg/mL in PBS, Sigma Aldrich) was added to each well and incubated for 90 min, 37 °C, 5% CO2. […]

MTT viability assay = assay type: cell-based; conditions: human, RPMI-8226 lymphoblasts, RPMI-8226 cells, read-out: EC50 cytotoxicity (MTT viability)
Protocol: as §1

HDAC10 = target: T1, HDAC10 (Homo sapiens, UniProt Q969S8); assay: In vitro deacetylation assay, HDAC10 (fluorescein-labeled N8-acetylspermidine, RP-HPLC); assay type: biochemical
T1 construct: HDAC10 1 – 667 Open Biosystems; Strep-FLAG-HALO (N); made in house; host or cells: HEK293/T17
T1 sequence (Q969S8 1-667): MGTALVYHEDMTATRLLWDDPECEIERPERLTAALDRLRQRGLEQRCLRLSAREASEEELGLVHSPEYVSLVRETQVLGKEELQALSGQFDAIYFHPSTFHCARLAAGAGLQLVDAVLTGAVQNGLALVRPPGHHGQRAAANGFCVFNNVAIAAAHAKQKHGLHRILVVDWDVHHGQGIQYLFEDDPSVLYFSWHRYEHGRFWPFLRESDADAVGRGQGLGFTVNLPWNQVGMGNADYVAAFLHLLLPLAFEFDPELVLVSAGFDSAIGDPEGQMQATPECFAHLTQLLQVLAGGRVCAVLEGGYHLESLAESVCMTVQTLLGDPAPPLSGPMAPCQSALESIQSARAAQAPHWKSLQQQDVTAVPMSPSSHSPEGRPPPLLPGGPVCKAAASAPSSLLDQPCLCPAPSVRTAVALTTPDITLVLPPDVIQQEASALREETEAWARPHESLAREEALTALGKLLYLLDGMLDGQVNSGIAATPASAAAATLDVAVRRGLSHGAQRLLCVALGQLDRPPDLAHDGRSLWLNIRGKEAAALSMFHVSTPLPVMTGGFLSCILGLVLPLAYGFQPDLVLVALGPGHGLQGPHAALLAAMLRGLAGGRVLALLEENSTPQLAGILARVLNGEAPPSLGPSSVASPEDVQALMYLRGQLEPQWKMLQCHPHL

histone H3 acetylation = assay: Histone H3 (K9/K14) acetylation in RPMI-8226 cells by Western blotting; assay type: cell-based; conditions: 6 h, Western blot
HDAC1 [1] = target: T2, HDAC1 (Homo sapiens, UniProt Q13547); assay: In vitro deacetylation assay, HDAC1 (GAK substrate); assay type: biochemical; conditions: for IC50: purified human HDAC1, GAK substrate 10 µM
T2 construct: HDAC1 1-482 Addgene; Strep-FLAG-HALO (N); made in house; host or cells: HEK293/T17

HDAC1 [2] = target: T2, HDAC1; assay: In vitro deacetylation assay, HDAC1 (RHKK substrate); assay type: biochemical; conditions: for IC50: purified human HDAC1, RHK[AcK]-AMC (RHKK) substrate
HDAC1-nanoLuc = HDAC1-nanoLuc (Homo sapiens, UniProt Q13547); assay: nanoBRET target engagement assay, HDAC1; assay type: cell-based; conditions: HEK293T/17 cells stably expressing HDAC1-nanoLuc, 2 h
HDAC6 = target: T3, HDAC6 (Homo sapiens, UniProt Q9UBN7); assay: In vitro deacetylation assay, HDAC6 (GAK substrate); assay type: biochemical; conditions: purified human HDAC6, Ac-GAK-Ac-AMC (GAK) substrate 10 µM
T3 construct: HDAC6 2-1215 Open Biosystems; Strep-FLAG-HALO (N); made in house; host or cells: HEK293/T17
T3 sequence (Q9UBN7 2-1215): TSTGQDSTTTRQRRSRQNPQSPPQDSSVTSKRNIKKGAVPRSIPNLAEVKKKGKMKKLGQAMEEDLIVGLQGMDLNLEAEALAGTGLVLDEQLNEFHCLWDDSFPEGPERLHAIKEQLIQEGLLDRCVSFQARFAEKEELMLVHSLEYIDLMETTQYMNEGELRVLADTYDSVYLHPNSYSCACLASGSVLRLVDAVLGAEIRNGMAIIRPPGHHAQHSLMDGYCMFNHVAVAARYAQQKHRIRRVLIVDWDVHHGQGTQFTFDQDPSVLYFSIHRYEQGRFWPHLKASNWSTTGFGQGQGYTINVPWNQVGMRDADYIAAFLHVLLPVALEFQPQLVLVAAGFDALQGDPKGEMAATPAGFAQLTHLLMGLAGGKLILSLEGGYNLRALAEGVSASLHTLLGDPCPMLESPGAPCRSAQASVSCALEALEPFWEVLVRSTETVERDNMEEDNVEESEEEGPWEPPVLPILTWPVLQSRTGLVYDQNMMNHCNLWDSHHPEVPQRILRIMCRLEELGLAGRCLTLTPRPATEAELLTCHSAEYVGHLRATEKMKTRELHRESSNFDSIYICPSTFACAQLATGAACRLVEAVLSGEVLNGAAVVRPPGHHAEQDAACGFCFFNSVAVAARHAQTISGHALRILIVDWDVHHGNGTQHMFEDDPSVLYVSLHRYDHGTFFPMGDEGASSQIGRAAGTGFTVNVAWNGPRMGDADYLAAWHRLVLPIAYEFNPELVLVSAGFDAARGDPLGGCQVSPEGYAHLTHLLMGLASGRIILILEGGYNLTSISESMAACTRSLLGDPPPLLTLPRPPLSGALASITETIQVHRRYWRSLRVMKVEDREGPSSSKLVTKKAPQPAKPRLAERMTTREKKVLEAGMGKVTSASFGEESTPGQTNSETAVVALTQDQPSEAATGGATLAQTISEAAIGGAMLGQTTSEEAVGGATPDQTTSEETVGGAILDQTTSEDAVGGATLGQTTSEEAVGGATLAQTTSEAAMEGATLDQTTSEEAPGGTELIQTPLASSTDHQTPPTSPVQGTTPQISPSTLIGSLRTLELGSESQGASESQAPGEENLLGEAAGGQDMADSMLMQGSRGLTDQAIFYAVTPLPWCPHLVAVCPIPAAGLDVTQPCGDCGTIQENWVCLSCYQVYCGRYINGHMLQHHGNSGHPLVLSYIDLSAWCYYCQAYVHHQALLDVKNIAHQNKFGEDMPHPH

[3] = Homo sapiens, RPMI-8226, 6 h, read-out: IC50 tubulin deacetylation (relative tubulin acetylation), RPMI-8226 cells, 6 h, Western blot; called EC50 in text

T2 sequence (Q13547 whole entry): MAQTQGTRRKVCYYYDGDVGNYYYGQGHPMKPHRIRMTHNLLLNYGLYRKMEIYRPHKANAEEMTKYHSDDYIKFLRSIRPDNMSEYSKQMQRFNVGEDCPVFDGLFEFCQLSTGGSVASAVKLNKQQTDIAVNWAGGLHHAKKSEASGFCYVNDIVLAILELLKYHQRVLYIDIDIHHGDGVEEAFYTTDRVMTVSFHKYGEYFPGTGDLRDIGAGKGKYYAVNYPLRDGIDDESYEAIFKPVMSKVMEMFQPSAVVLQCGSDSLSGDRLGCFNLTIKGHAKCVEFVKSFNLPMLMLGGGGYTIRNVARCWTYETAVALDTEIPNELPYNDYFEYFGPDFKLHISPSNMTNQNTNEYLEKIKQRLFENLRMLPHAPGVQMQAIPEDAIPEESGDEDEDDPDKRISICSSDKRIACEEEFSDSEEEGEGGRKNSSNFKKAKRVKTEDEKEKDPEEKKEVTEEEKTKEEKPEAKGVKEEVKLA
HDAC1-nanoLuc, sequence (Q13547 whole entry): as above

Compound | IC50 (tubulin acetylation; [3]) | EC50 (RPMI-8226 lymphoblasts) | EC50 at 48 h (MTT viability assay) | effect on histone H3 (K9/K14) acetylation, class I HDAC inhibition (histone H3 acetylation) | IC50 (HDAC1 [1]) | IC50 (HDAC1 [2]) | further results
O=C(CCCCCCNC(=O)c1cnc(N(c2ccccc2)c2ccccc2)nc1)NO [ACY-1215, rocilinostat] | 619 nM | 2900 nM | 2890 nM | the most potent class I HDAC inhibitors | – | – | IC50 (HDAC10): 18.2 nM
CCCCN(Cc1ccc(C(=O)NO)cc1)C(=O)Nc1ccccc1 [Next A, Nexturastat A] | 249 nM | 2800 nM | 2810 nM | – | – | – | –
CC(/C=C/C(=O)NO)=C\[C@@H](C)C(=O)c1ccc(N(C)C)cc1 [TSA, Trichostatin A] | – | 240 nM | 237 nM | the most potent class I HDAC inhibitors | – | – | IC50 (tubulin acetylation; Homo sapiens, RPMI-8226, 6 h, read-out: IC50 tubulin deacetylation (relative tubulin acetylation)): 136 nM; IC50 (tubulin acetylation; Homo sapiens, RPMI-8226, 6 h, read-out: potency to inhibit tubulin deacetylation): 136 nM; IC50 (tubulin acetylation; read-out: IC50 tubulin deacetylation (relative tubulin acetylation)): 140 nM
CN1CCc2c(c3ccccc3n2Cc2ccc(C(=O)NO)cc2)C1 [Tub A, Tubastatin A] | – | – | 21600 nM | – | – | – | IC50 (tubulin acetylation; Homo sapiens, RPMI-8226, 6 h; read-out: IC50 tubulin deacetylation (relative tubulin acetylation)): 985 nM; effect on cell viability (RPMI-8226 lymphoblasts; MTT): less pronounced effects on cell viability at high inhibitor concentrations
O=C(CCCCCCC(=O)Nc1ccc([C@H]2O[C@@H](CSc3nc(-c4ccccc4)c(-c4ccccc4)o3)C[C@@H](c3ccc(CO)cc3)O2)cc1)NO [Tubacin] | 1710 nM | 6500 nM | 6510 nM | – | 102 nM | 15100 nM | IC50 (tubulin acetylation; read-out: IC50 tubulin deacetylation (relative tubulin acetylation); RPMI-8226 cells, 6 h, Western blot; called EC50 in text): 1700 nM; EC50 (HDAC1 [1]; Figure 2C, in vitro data (GAK) in μM): 0.1 µM; EC50 (HDAC1-nanoLuc): 13200 nM
CS(=O)(=O)N(Cc1ccc(C(=O)NO)cn1)c1cccc(Cl)c1 [compound 6, 6-((N-(3-Chlorophenyl)methylsulfonamido)methyl)-N-hydroxynicotinamide] | – | – | 998 nM | – | 49.2 nM | 281 nM | IC50 (HDAC6): 0.35 nM; SI (HD6/HD1) GAK, in vitro (HDAC1 [1]; ratio of IC50 HDAC1 (GAK) divided by IC50 HDAC6): 141; IC50 (HDAC10; purified human HDAC10, read-out: IC50 HDAC10): 68.3 nM; SI (HD6/HD10) (HDAC10; ratio of IC50 HDAC10 divided by IC50 HDAC6): 195; SI (HD6/HD1) RHKK (HDAC1 [2]; ratio of IC50 HDAC1 (RHKK) divided by IC50 HDAC6): 803
